Series [1] addresses T1, Glucocorticoid receptor (Homo sapiens) (UniProt P04150).
T1 sequence (whole entry): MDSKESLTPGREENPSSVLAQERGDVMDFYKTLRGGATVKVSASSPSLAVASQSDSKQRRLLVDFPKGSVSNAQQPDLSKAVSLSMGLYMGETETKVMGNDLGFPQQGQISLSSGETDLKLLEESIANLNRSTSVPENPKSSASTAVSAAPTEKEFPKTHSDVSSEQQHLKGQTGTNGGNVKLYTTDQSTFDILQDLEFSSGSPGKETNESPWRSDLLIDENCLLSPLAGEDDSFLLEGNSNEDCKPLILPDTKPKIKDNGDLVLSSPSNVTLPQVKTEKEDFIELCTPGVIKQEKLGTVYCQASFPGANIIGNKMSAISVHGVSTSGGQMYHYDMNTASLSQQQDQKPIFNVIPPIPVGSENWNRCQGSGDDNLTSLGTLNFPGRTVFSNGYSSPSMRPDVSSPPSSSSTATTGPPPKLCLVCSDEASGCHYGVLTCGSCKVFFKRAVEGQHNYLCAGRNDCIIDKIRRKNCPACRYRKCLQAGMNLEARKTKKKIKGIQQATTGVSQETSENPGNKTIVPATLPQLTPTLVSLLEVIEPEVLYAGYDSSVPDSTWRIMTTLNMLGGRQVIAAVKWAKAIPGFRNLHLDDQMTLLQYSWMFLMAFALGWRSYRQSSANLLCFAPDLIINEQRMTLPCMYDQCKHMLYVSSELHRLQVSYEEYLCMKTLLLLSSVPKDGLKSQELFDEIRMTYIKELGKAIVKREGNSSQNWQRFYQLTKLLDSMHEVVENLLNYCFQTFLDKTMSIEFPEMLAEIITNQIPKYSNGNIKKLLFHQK
Nature of the series: Transactivation activity at glucocorticoid receptor in human HepG2 cells assessed as induction of tyrosine amino transferase at 1 uM relative to control. The class given is cell-based.

Series [2] deals with T2, Glucocorticoid receptor (Rattus norvegicus) (UniProt P06536).
T2 sequence (whole entry): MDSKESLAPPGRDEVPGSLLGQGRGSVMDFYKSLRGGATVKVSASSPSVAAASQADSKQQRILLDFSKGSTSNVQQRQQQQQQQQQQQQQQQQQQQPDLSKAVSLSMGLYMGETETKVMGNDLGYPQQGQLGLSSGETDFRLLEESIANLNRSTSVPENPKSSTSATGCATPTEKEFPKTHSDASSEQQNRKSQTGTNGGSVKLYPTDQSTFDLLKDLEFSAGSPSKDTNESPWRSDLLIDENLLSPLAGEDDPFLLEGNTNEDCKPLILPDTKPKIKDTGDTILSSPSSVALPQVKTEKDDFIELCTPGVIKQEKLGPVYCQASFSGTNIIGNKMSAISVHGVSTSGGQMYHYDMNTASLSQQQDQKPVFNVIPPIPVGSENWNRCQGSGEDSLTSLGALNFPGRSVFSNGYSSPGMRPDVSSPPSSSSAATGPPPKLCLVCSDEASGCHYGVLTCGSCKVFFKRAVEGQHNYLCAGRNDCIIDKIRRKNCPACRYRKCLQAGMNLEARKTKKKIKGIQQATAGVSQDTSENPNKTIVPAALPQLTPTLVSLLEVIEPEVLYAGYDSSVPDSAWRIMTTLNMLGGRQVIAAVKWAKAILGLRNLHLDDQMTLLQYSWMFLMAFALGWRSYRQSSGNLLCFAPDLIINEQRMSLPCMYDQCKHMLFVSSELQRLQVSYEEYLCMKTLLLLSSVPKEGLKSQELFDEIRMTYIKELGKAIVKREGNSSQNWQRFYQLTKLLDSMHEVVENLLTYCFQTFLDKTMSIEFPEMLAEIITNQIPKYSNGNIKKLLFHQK
Nature of the series: Transactivation activity at glucocorticoid receptor in rat H4II-E cells assessed as induction of tyrosine amino transferase at 1 uM relative to control. The class given is cell-based.

The target in series [3] is T3, Glucocorticoid receptor (Homo sapiens, UniProt P04150).
T3 sequence (P04150 whole entry): T1 sequence (whole entry)
Nature of the series: Transactivation activity at glucocorticoid receptor in human HepG2 cells expressing luciferase-taggged GRE gene by luciferase reporter gene assay. It counts as cell-based. A general note: A reporter such as luciferase makes a cellular process visible.

Series [4] addresses T3, Glucocorticoid receptor. Nature of the series: Transrepression activity at glucocorticoid receptor in human H292 cells assessed as inhibition of TNF-stimulated IL-6 cytokine synthesis. It counts as cell-based.
For series [5], the target named is T1, Glucocorticoid receptor (Homo sapiens). Nature of the series: Transactivation activity at glucocorticoid receptor in human HepG2 cells expressing luciferase-taggged GRE gene at 1 uM by luciferase reporter gene assay relative to control. The class given is cell-based.
For series [6] the target is unchanged. Kind of series: Transrepression activity at glucocorticoid receptor in human H292 cells assessed as inhibition of TNF-stimulated IL-6 cytokine synthesis at 1 uM relative to control. The class given is cell-based.
For series [7], the target named is T3, Glucocorticoid receptor. Kind of series: Inhibition of human glucocorticoid receptor.
The nature of series [8]: Therapeutic index, ratio of ED20 for thymolysis to ED70 for forced vital capacity in ovalbumin-challenged Brown-Norway rat. It counts as organism-based. As to conditions: in vivo, read-out: TI.
Series [9] concerns the target T3, Glucocorticoid receptor. Nature of the series: Transactivation activity at glucocorticoid receptor in human HepG2 cells assessed as induction of tyrosine amino transferase. The class given is cell-based.
For series [10], the target named is T4, Glucocorticoid receptor (Rattus norvegicus, UniProt P06536).
T4 sequence (P06536 whole entry): T2 sequence (whole entry)
Kind of series: Transactivation activity at glucocorticoid receptor in rat H4II-E cells assessed as induction of tyrosine amino transferase. The class given is cell-based.

The structures appear in SMILES notation. pEC50, pIC50: −log10 of the molar value.

These results are taken from ChEMBL document CHEMBL1914389, “Steroidal C-21 mercapto derivatives as dissociated steroids: discovery of an inhaled dissociated steroid” (Bioorg Med Chem Lett, 2011).

As usually defined, the Emax is the size of the effect at its maximum, as opposed to the concentration needed. For orientation: pEC50 means the EC50 on a negative log10 scale, so that one unit is a factor of ten. In general, pIC50 refers to the negative decadic logarithm of the IC50, by convention in mol/L. For `C[C@]12C=CC(=O)C=C1CC[C@@H]1[C@@H]2[C@@H](O)C[C@@]2(C)[C@H]1CC[C@]2(OC(=O)c1ccco1)C(=O)CSc1nccc2ccccc12`, the Emax in [1] was 24%; in [2], 32%; in series [5], 73%; in series [6], 96%. Also, at Glucocorticoid receptor [3], the pEC50 was 7.76. The pIC50 at Glucocorticoid receptor [4] is 8.68.
For the compound `C[C@]12CCC(=O)C=C1CC[C@@H]1[C@@H]2[C@@H](O)C[C@@]2(C)[C@H]1CC[C@]2(OC(=O)c1ccco1)C(=O)CSc1nc2ncccc2s1`, the results for the Emax in series [1], in [2] and in series [6] were 15%, 2% and 94%, respectively. The pIC50 at Glucocorticoid receptor [4] was 7.84.
Turning to `C[C@@H]1C[C@H]2[C@@H]3CCC4=CC(=O)C=C[C@]4(C)[C@@]3(F)[C@@H](O)C[C@]2(C)[C@@]1(O)C(=O)CSc1nc2ccccc2s1`, the Emax in series [2] was 33%; in series [5], 68%; in series [6] it was 98%. This compound also showed a pEC50 on Glucocorticoid receptor [3] of 7.34. For the same compound, the pIC50 at Glucocorticoid receptor [7] is 7.74; on Glucocorticoid receptor [4] it was 8.36.
As for `C[C@]12CCC(=O)C=C1CC[C@H]1[C@@H]3CC[C@](O)(C(=O)CSc4nc5ccccc5s4)[C@@]3(C)C[C@H](O)[C@@]12F`, the results for the Emax in [2], in series [5] and in series [6] were 21%, 63% and 95%, respectively. The same compound showed a pEC50 at Glucocorticoid receptor [3] of 6.27. Moreover, the pIC50 is 8.34 on Glucocorticoid receptor [7] and 7.73 at Glucocorticoid receptor [4].
Turning to `CCC(=O)OCC(=O)[C@@]1(OC(=O)CC)[C@@H](C)C[C@H]2[C@@H]3CCC4=CC(=O)C=C[C@]4(C)[C@@]3(Cl)[C@@H](O)C[C@@]21C` [BECLOMETHASONE DIPROPIONATE], the selectivity ratio in series [8] was determined as 1.
Take `C[C@]12CCC(=O)C=C1CC[C@@H]1[C@@H]2[C@@H](O)C[C@@]2(C)[C@H]1CC[C@]2(OC(=O)c1ccco1)C(=O)CSc1ncccn1`: the Emax was found to be 35% in series [1], 7% in [2] and 94% in series [6]. The pIC50 on Glucocorticoid receptor [4] was 8.01.
Turning to `C[C@]12C=CC(=O)C=C1CC[C@@H]1[C@@H]2[C@@H](O)C[C@@]2(C)[C@H]1CC[C@]2(OC(=O)c1ccco1)C(=O)CSc1nc2ccccc2s1`, the maximal response (Emax) in [1] is 43%; in series [2] it was 62%; in series [5] it was 93%; in series [6], 99%. The pEC50 on Glucocorticoid receptor [9] was 7.29; on Glucocorticoid receptor [3], 7.85; on Glucocorticoid receptor [10], 7.73. Further, the pIC50 on Glucocorticoid receptor [4] is 9.12.
As for `C[C@]12CCC(=O)C=C1CC[C@@H]1[C@@H]2[C@@H](O)C[C@@]2(C)[C@H]1CC[C@]2(OC(=O)c1ccco1)C(=O)CSc1nc2ccccc2o1`, the Emax came to 53% in series [1], 9% in series [2] and 97% in series [6]. Also, at Glucocorticoid receptor [9], the pEC50 was 7.25. The negative logarithm of the IC50 (pIC50) on Glucocorticoid receptor [4] was 8.66.
Consider `C[C@]12CCC(=O)C=C1CC[C@@H]1[C@@H]2[C@@H](O)C[C@@]2(C)[C@H]1CC[C@]2(OC(=O)c1ccco1)C(=O)CSc1cnc2ccccc2n1`, for which the figures for the Emax in [1], in [2] and in series [6] were 41%, 9% and 98%, respectively. In addition, on Glucocorticoid receptor [4], the pIC50 was 8.85.
On to `Cc1nc(SCC(=O)[C@@]2(OC(=O)c3ccco3)CC[C@H]3[C@@H]4CCC5=CC(=O)CC[C@]5(C)[C@H]4[C@@H](O)C[C@@]32C)sc1C`, for which the maximal response (Emax) is 57% in [1], 12% in series [2] and 100% in [6]. On Glucocorticoid receptor [9], the pEC50 is 7.65. The pIC50 at Glucocorticoid receptor [4] was 9.05.
Take `CCCC1O[C@@H]2C[C@H]3[C@@H]4CCC5=CC(=O)C=C[C@]5(C)[C@H]4[C@@H](O)C[C@]3(C)[C@]2(C(=O)CO)O1` (some centres not stated) [BUDESONIDE]: the selectivity ratio in series [8] is 1.
Regarding `C[C@]12CCC(=O)C=C1CC[C@@H]1[C@@H]2[C@@H](O)C[C@@]2(C)[C@H]1CC[C@]2(OC(=O)c1ccco1)C(=O)CSc1ccc2ccccc2n1`, the Emax worked out at 22% in series [1], 11% in [2] and 96% in series [6]. Further, the pIC50 on Glucocorticoid receptor [4] was 8.55.
The corresponding values for `C[C@]12CCC(=O)C=C1CC[C@@H]1[C@@H]2[C@@H](O)C[C@@]2(C)[C@H]1CC[C@]2(OC(=O)c1ccco1)C(=O)CSc1nccc2ccccc12` are 33%, 4%, 86% and 7.80.
For the compound `C[C@H]1C[C@@H]2[C@H]([C@@H](O)C[C@@]3(C)[C@H]2CC[C@]3(O)C(=O)CSc2nc3ccccc3s2)[C@@]2(C)C=CC(=O)C=C12`, the values for the Emax in [2], in series [5] and in [6] were 34%, 55% and 95%, respectively. On Glucocorticoid receptor [3], the pEC50 is 6.53. For the same compound, the pIC50 against Glucocorticoid receptor [7] was 7.74; on Glucocorticoid receptor [4] it was 7.41.
For the compound `Cc1ccnc(SCC(=O)[C@@]2(OC(=O)c3ccco3)CC[C@H]3[C@@H]4CCC5=CC(=O)C=C[C@]5(C)[C@H]4[C@@H](O)C[C@@]32C)n1`, the maximal effect (Emax) came out at 43% in series [1], 24% in [2], 97% in [5] and 98% in series [6]. The pEC50 on Glucocorticoid receptor [3] was 7.88. The pIC50 at Glucocorticoid receptor [4] is 8.68.
With `C[C@@H]1C[C@H]2[C@@H]3C[C@H](F)C4=CC(=O)C=C[C@]4(C)[C@@]3(F)[C@@H](O)C[C@]2(C)[C@@]1(O)C(=O)CSc1nc2ccccc2s1`, the Emax worked out at 79% in series [2], 66% in series [5] and 100% in [6]. Moreover, the results for the pEC50 on Glucocorticoid receptor [3] and at Glucocorticoid receptor [10] were 7.77 and 7.57, respectively. The pIC50 against Glucocorticoid receptor [7] is 7.89; at Glucocorticoid receptor [4] it was 8.72.
With `Cn1c(SCC(=O)[C@@]2(OC(=O)c3ccco3)CC[C@H]3[C@@H]4CCC5=CC(=O)CC[C@]5(C)[C@H]4[C@@H](O)C[C@@]32C)nc2ccccc21`, the values for the Emax in series [1], in [2] and in series [6] were 39%, 17% and 98%, respectively. Besides, the pIC50 on Glucocorticoid receptor [4] was 8.43.
Take `C[C@@H]1C[C@H]2[C@@H]3CCC4=CC(=O)C=C[C@]4(C)[C@@]3(Cl)[C@@H](O)C[C@]2(C)[C@@]1(O)C(=O)CSc1nc2ccccc2s1`: the results for the Emax in [2], in series [5] and in series [6] were 29%, 60% and 88%, respectively. The pEC50 at Glucocorticoid receptor [3] was 7.30. Further, the figures for the pIC50 on Glucocorticoid receptor [7] and at Glucocorticoid receptor [4] were 7.77 and 8.31, respectively.
`C[C@]12C=CC(=O)C=C1CC[C@@H]1[C@@H]2[C@@H](O)C[C@@]2(C)[C@H]1CC[C@]2(O)C(=O)CSc1nc2ccccc2s1`: the Emax in series [2] is 19%; in series [5], 29%; in series [6], 78%. Besides, the pIC50 on Glucocorticoid receptor [7] is 8.42; on Glucocorticoid receptor [4] it was 7.46.
